Drawing on ChEMBL document CHEMBL5728270, “Immunomodulator compounds” (2021), this text covers IC50 for four compounds.

The nature of the test: Enzyme-Linked Immunosorbent Assay ELISA: 96 Well plates were coated with […] of human PD-L1 (obtained from R&D) in PBS overnight at 4° C. The wells were then blocked with 2% BSA in PBS (W/V) with 0.05% TWEEN-20 for 1 hour at 37° C. The plates were washed 3 times with PBS/0.05% TWEEN-20 and the compounds were serial diluted (1:5) in dilution medium and added to the ELISA plates. Human PD-1 and biotin 0.3 μg/mL (ACRO Biosystems) were added and incubated for 1 hour at 37° C. then washed 3 times with PBS/0.05% TWEEN-20. A second block was performed with 2% BSA in PBS (W/V)/0.05% TWEEN-20 for 10 min at 37° C. and was washed 3 times with PBS/0.05% TWEEN-20. Streptavidin-HRP was added for 1 hour at 37° C. then washed 3 times with PBS/0.05% TWEEN-20. TMB substrate was added and reacted for 20 min at 37° C. A stop solution (2 N aqueous H2SO4) was added. The absorbance was read at 450 nm using a micro-plate spectrophotometer. (ELISA stands for enzyme-linked immunosorbent assay.)

As for `C[C@@](CO)(NCc1cc(Cl)c(O[C@H]2CCc3c(-c4cccc(OCCCN5CCC(O)CC5)c4Cl)cccc32)cc1OCc1cncc(C#N)c1)C(=O)O`, the IC50 is < 5 nM.

`Cc1c(OCCCN2CCC(O)CC2)cccc1-c1cccc2c1CC[C@@H]2Oc1cc(OCc2cc(C#N)cc(C#N)c2)c(CN[C@@](C)(CO)C(=O)O)cc1Cl`: the IC50 was < 5 nM.

As for `Cc1c(OCCCN2CCC(O)CC2)cccc1-c1cccc2c1CC[C@@H]2Oc1cc(OCc2cncc(C#N)c2)c(CN[C@H](C(=O)O)[C@@H](C)O)cc1Cl`, the IC50 is < 5 nM.

`N#Cc1cncc(COc2cc(O[C@H]3CCc4c(-c5cccc(OCCCN6CCC(F)CC6)c5Cl)cccc43)c(Cl)cc2CN[C@H]2CCOC[C@@H]2O)c1`: the IC50 was < 5 nM.

The IC50 is the concentration needed to halve the response being measured. A higher IC50 goes with lower potency.
